Experimental data: US12655124B2, “Heterocyclic compounds as modulators of stimulator of interferon genes (STING)” (RYVU THERAPEUTICS S.A., priority 2019, dated 2026)

Biological target: human STING (Homo sapiens, UniProt Q86WV6)
Test: Fluorescence Thermal Shift assay (hSTING FTS binding assay);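 also: STING preincubated with compound for 20 min in HEPES NaCl buffer pH 7.5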
Conditions: ΔTm, STING 0.1 mg/mL, SyproOrange, 25 to 99° C.
Protocol: Fluorescence Thermal Shift Assay Compounds of the present invention were tested for binding to human STING in Fluorescence Thermal Shift assay. […] Final STING concentration was 0.1 mg/mL. Thermal unfolding was performed in Real-Time PCR QuantStudio 6 Flex System (Applied Biosystems), from 25 to 99° C., with continuous ramp mode and ramp rate 0.033° C./s. The data were analyzed using Protein Thermal Shift Software (ThermoFisher).

Sequence of human STING (Q86WV6 whole entry H232R): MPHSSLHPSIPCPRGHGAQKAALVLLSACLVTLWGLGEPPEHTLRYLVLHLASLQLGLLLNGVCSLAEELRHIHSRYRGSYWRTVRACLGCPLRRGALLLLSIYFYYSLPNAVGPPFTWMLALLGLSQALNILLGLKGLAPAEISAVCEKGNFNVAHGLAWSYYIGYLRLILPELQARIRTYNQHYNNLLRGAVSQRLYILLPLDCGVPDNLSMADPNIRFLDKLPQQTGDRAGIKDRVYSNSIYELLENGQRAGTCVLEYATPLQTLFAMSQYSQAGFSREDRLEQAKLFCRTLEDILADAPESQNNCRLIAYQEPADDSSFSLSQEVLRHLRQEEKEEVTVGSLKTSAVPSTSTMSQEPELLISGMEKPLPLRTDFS

Structure (SMILES)	hSTING FTS binding assay (ΔT ° C.)
Cc1cnc(N2C[C@@H](F)C[C@H](N(Cc3ccnc(C)c3)Cc3cn(C4CC4)c4cc(N5CCC[C@H](O)C5)c(F)cc4c3=O)C2)cn1 [Example 82, 1-cyclopropyl-6-fluoro-3-({[(3S,5S)-5-fluoro-1-(5-methylpyrazin-2-yl)piperidin-3-yl][(2-methylpyridin-4-yl)methyl]amino}methyl)-7-[(3S)-3-hydroxypiperidin-1-yl]-1,4-dihydroquinolin-4-one]	++ (10<ΔTm<20° C.)
Cc1cc(CN(Cc2cn(C)c3ccccc3c2=O)[C@H]2CCCN(c3ccc(CN)nc3)C2)ccn1.Cl [Example 3, 3-({[(3S)-1-[6-(Aminomethyl)pyridin-3-yl]piperidin-3-yl][(2-methylpyridin-4-yl)methyl]amino}methyl)-1-methyl-1,4-dihydroquinolin-4-one Hydrochloride]	+ (ΔTm≤10° C.)
Cc1ccc(N2C[C@@H](F)C[C@H](N(Cc3ccnc(C)c3)Cc3cn(C4CC4)c4cc(OCCO)c(F)cc4c3=O)C2)cn1 [Example 75, 1-cyclopropyl-6-fluoro-3-({[(3S,5S)-5-fluoro-1-(6-methylpyridin-3-yl)piperidin-3-yl][(2-methylpyridin-4-yl)methyl]amino}methyl)-7-(2-hydroxyethoxy)-1,4-dihydroquinolin-4-one]	+++ (ΔTm≥20° C.)
Cc1ccc(N2CCC[C@H](N(Cc3ccnc(C)c3)Cc3cn(C4CC4)c4cc(N5CCCC(C(=O)O)C5)c(F)cc4c3=O)C2)cn1 (stereo partly drawn) [Example 66, 1-[1-cyclopropyl-6-fluoro-3-({[(3S)-1-(6-methylpyridin-3-yl)piperidin-3-yl][(2-methylpyridin-4-yl)methyl]amino}methyl)-4-oxo-1,4-dihydroquinolin-7-yl]piperidine-3-carboxylic Acid]	+++ (ΔTm≥20° C.)
Cc1ccc(N2CCC[C@H](N(Cc3ccnc(C)c3)Cc3cn(C4CC4)c4cc(N5CC[C@@H](CN)C5)c(F)cc4c3=O)C2)cn1.Cl [Example 20, 7-[(3S)-3-(aminomethyl)pyrrolidin-1-yl]-1-cyclopropyl-6-fluoro-3-({[(3S)-1-(6-methylpyridin-3-yl)piperidin-3-yl][(2-methylpyridin-4-yl)methyl]amino}methyl)-1,4-dihydroquinolin-4-one Hydrochloride]	+++ (ΔTm≥20° C.)
Cc1ccc(N2CCC[C@H](N(Cc3ccnc(C)c3)Cc3cn(C4CC4)c4cc(N5CCC[C@@H](N)C5)c(F)cc4c3=O)C2)cn1 [Example 17, 7-[(3R)-3-Aminopiperidin-1-yl]-1-cyclopropyl-6-fluoro-3-({[(3S)-1-(6-methylpyridin-3-yl)piperidin-3-yl][(2-methylpyridin-4-yl)methyl]amino}methyl)-1,4-dihydroquinolin-4-one]	+++ (ΔTm≥20° C.)
Cc1cc(CN(Cc2cn(C)c3ccccc3c2=O)[C@H]2CCCN(c3ccc(N)nc3)C2)ccn1 [Example 2, 3-({[(3S)-1-(6-Aminopyridin-3-yl)piperidin-3-yl][(2-methylpyridin-4-yl)methyl]amino}methyl)-1-methyl-1,4-dihydroquinolin-4-one]	+++ (ΔTm≥20° C.)
Cc1ccc(N2CCC[C@H](N(Cc3ccnc(C)c3)Cc3cn(C4CC4)c4cc(N5CCC(N)C(F)(F)C5)c(F)cc4c3=O)C2)cn1 (stereo partly drawn) [Example 26, 7-(4-amino-3,3-difluoropiperidin-1-yl)-1-cyclopropyl-6-fluoro-3-({[(3S)-1-(6-methylpyridin-3-yl)piperidin-3-yl][(2-methylpyridin-4-yl)methyl]amino}methyl)-1,4-dihydroquinolin-4-one]	+++ (ΔTm≥20° C.)
Cc1cc(CN(Cc2cn(C3CC3)c3cc(N4CCC[C@H](O)C4)c(F)cc3c2=O)[C@H]2CCCN(c3cccnc3)C2)ccn1.Cl [Example 86, 1-cyclopropyl-6-fluoro-7-[(3S)-3-hydroxypiperidin-1-yl]-3-({[(2-methylpyridin-4-yl)methyl][(3S)-1-(pyridin-3-yl)piperidin-3-yl]amino}methyl)-1,4-dihydroquinolin-4-one Hydrochloride]	+++ (ΔTm≥20° C.)
Cc1cc(CN(Cc2cn(C(C)C)c3ccccc3c2=O)[C@H]2CCCN(c3ccc(N)nc3)C2)ccn1.Cl [Example 34, 3-({[(3S)-1-(6-aminopyridin-3-yl)piperidin-3-yl][(2-methylpyridin-4-yl)methyl]amino}methyl)-1-(propan-2-yl)-1,4-dihydroquinolin-4-one Hydrochloride]	+++ (ΔTm≥20° C.)
Cc1ccc(N2CCC[C@H](N(Cc3ccnc(C)c3)Cc3cn(C4CC4)c4cc(OCCN)c(F)cc4c3=O)C2)cn1 [Example 10, 7-(2-Aminoethoxy)-1-cyclopropyl-6-fluoro-3-({[(3S)-1-(6-methylpyridin-3-yl)piperidin-3-yl][(2-methylpyridin-4-yl)methyl]amino}methyl)-1,4-dihydroquinolin-4-one]	+++ (ΔTm≥20° C.)
Cc1cc(CN(Cc2cn(C(C)C)c3cc(N4CC[C@@H](O)C4)ccc3c2=O)[C@H]2CCCN(c3ccnnc3)C2)ccn1 [Example 49, 7-[(3R)-3-hydroxypyrrolidin-1-yl]-3-({[(2-methylpyridin-4-yl)methyl][(3S)-1-(pyridazin-4-yl)piperidin-3-yl]amino}methyl)-1-(propan-2-yl)-1,4-dihydroquinolin-4-one]	+ (ΔTm≤10° C.)
Cc1ccc(N2CCC[C@H](N(Cc3ccnc(C)c3)Cc3cn(C4CC4)c4cc(N5CCC[C@@H](O)C5)c(F)cc4c3=O)C2)cn1.Cl [Example 28, 1-cyclopropyl-6-fluoro-7-[(3R)-3-hydroxypiperidin-1-yl]-3-({[(3S)-1-(6-methylpyridin-3-yl)piperidin-3-yl][(2-methylpyridin-4-yl)methyl]amino}methyl)-1,4-dihydroquinolin-4-one Hydrochloride]	+++ (ΔTm≥20° C.)
COCCn1cc(CN(Cc2ccnc(C)c2)[C@H]2CCCN(c3ccc(N)nc3)C2)c(=O)c2ccccc21.Cl [Example 21, 3-({[(3S)-1-(6-aminopyridin-3-yl)piperidin-3-yl][(2-methylpyridin-4-yl)methyl]amino}methyl)-1-(2-methoxyethyl)-1,4-dihydroquinolin-4-one Hydrochloride]	+++ (ΔTm≥20° C.)
Cc1ccc(N2CCC[C@H](N(Cc3ccnc(C)c3)Cc3cn(C4CC4)c4cc(N5CCC(F)(CN)C5)c(F)cc4c3=O)C2)cn1 (stereo partly drawn) [Example 30, 7-[3-(aminomethyl)-3-fluoropyrrolidin-1-yl]-1-cyclopropyl-6-fluoro-3-({[(3S)-1-(6-methylpyridin-3-yl)piperidin-3-yl][(2-methylpyridin-4-yl)methyl]amino}methyl)-1,4-dihydroquinolin-4-one]	+++ (ΔTm≥20° C.)
Cc1ccc(N2CCC[C@H](N(Cc3ccnc(C)c3)Cc3cn(C)c4cc(N5CCC(N)CC5)ccc4c3=O)C2)cn1.Cl [Example 6, 7-(4-Aminopiperidin-1-yl)-1-methyl-3-({[(3S)-1-(6-methylpyridin-3-yl)piperidin-3-yl][(2-methylpyridin-4-yl)methyl]amino}methyl)-1,4-dihydroquinolin-4-one Hydrochloride]	++ (10<ΔTm<20° C.)
Cc1ccc(N2CCC[C@H](N(Cc3ccnc(C)c3)Cc3cn(C4CC4)c4cc(NCCN(C)C)c(F)cc4c3=O)C2)cn1 [Example 9, 1-Cyclopropyl-7-{[2-(dimethylamino)ethyl]amino}-6-fluoro-3-({[(3S)-1-(6-methylpyridin-3-yl)piperidin-3-yl][(2-methylpyridin-4-yl)methyl]amino}methyl)-1,4-dihydroquinolin-4-one]	+++ (ΔTm≥20° C.)
CNC1CCN(c2cc3c(cc2F)c(=O)c(CN(Cc2ccnc(C)c2)[C@H]2CCCN(c4ccc(C)nc4)C2)cn3C2CC2)CC1.Cl [Example 19, 1-cyclopropyl-6-fluoro-7-[4-(methylamino)piperidin-1-yl]-3-({[(3S)-1-(6-methylpyridin-3-yl)piperidin-3-yl][(2-methylpyridin-4-yl)methyl]amino}methyl)-1,4-dihydroquinolin-4-one Hydrochloride]	+++ (ΔTm≥20° C.)
Cc1ccc(N2CCC[C@H](N(Cc3ccnc(C)c3)Cc3cn(C4CC4)c4cc(N5CC[C@@H](N)C(F)(F)C5)c(F)cc4c3=O)C2)cn1.Cl (single isomer, unassigned) [Example 56]	+++ (ΔTm≥20° C.)
Cc1ccc(N2CCC[C@H](N(Cc3ccnc(C)c3)Cc3cn(C4CC4)c4cc(N5CC(N)C6(CC6)C5)c(F)cc4c3=O)C2)cn1.Cl (stereo partly drawn) [Example 22, 7-{7-amino-5-azaspiro[2.4]heptan-5-yl}-1-cyclopropyl-6-fluoro-3-({[(3S)-1-(6-methylpyridin-3-yl)piperidin-3-yl][(2-methylpyridin-4-yl)methyl]amino}methyl)-1,4-dihydroquinolin-4-one Hydrochloride]	+++ (ΔTm≥20° C.)
Cc1ccc(N2CCC[C@H](N(Cc3ccnc(C)c3)Cc3cn(C4CC4)c4nc(N5CC[C@@H](O)C5)c(F)cc4c3=O)C2)cn1.Cl [Example 37, 1-cyclopropyl-6-fluoro-7-[(3R)-3-hydroxypyrrolidin-1-yl]-3-({[(3S)-1-(6-methylpyridin-3-yl)piperidin-3-yl][(2-methylpyridin-4-yl)methyl]amino}methyl)-1,4-dihydro-1,8-naphthyridin-4-one Hydrochloride]	+++ (ΔTm≥20° C.)
Cc1ccc(N2CCC[C@H](N(Cc3ccnc(C)c3)Cc3cn(C4CC4)c4cc(N)c(F)cc4c3=O)C2)cn1 [Example 7, 7-Amino-1-cyclopropyl-6-fluoro-3-({[(3S)-1-(6-methylpyridin-3-yl)piperidin-3-yl][(2-methylpyridin-4-yl)methyl]amino}methyl)-1,4-dihydroquinolin-4-one]	+++ (ΔTm≥20° C.)
